pIC50: −log10 of the molar value. Like-named read-outs stand apart in the source and are kept apart here.
Target: USP30 (Homo sapiens (Human), UniProt Q70CQ3)
Experiment: USP30 biochemical IC50 assay
Method: USP30 Biochemical IC50 Assay
Dilution plates were prepared at 21 times the final concentration (2100 μM for a final concentration of 100 μM) in 50% DMSO in a 96-well polypropylene V-bottom plate (Greiner #651201). A typical 8-point dilution series to be 100, 30, 10, 3, 1, 0.3, 0.1, 0.03 μM final. Reactions were performed in duplicate in black 384 well plates (small volume, Greiner 784076) in a final reaction volume of 21 μl. Either 1 μl of 50% DMSO or diluted compound was added to the plate. USP30 was diluted in reaction buffer (40 mM Tris, pH 7.5, 0.005% Tween 20, 0.5 mg/ml BSA, 5 mM beta-mercaptoethanol) to the equivalent of 0.05 μl/well and 10 μl of diluted USP30 was added to the compound. Enzyme and compound were incubated for 30 min at room temp. Reactions were initiated by the addition of 50 nM of TAMRA labelled peptide linked to ubiquitin via an iso-peptide bond as fluorescence polarisation substrate. Reactions were read immediately after addition of substrate and following a 2 hr incubation at room temperature. Readings were performed on a Pherastar Plus (BMG Labtech). λ Excitation 540 nm; λ Emission 590 nm.

[1] = fluorescence polarisation, TAMRA labelled peptide linked to ubiquitin, 30 min pre-incubation, 2 hr read, read-out: IC50 range

Sequence of USP30 (Q70CQ3 57-517): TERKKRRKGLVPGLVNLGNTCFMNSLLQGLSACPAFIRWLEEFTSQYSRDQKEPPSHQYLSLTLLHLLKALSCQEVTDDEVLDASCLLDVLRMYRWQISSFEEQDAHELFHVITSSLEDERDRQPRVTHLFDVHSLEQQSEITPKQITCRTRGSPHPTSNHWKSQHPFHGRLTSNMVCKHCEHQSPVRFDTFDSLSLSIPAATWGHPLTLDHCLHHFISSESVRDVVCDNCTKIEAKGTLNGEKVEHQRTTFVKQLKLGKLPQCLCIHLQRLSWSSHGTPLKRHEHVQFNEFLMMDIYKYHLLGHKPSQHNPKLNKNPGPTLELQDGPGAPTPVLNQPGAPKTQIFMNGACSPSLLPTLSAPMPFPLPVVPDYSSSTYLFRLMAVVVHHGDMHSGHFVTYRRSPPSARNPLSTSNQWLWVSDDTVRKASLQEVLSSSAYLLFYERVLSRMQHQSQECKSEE

Row | Structure (SMILES) | pIC50 [1] | pIC50
1 | N#CN1CCC(CNc2ccc3ccccc3n2)C1 (stereo not shown) [Example 1, 3-((Quinolin-2-ylamino)methyl)pyrrolidine-1-carbonitrile] | 5.00 to 6.00 | –
2 | N#CN1CCC(CNc2nc3ccc(F)cc3s2)C1 (stereo not shown) [Example 2, 3-(((6-Fluorobenzo[d]thiazol-2-yl)amino)methyl)pyrrolidine-1-carbonitrile] | 5.00 to 6.00 | –
3 | N#CN1CCC(CNc2nccc3ccccc23)C1 (stereo not shown) [Example 3, 3-((Isoquinolin-1-ylamino)methyl)pyrrolidine-1-carbonitrile] | 5.00 to 6.00 | –
4 | N#CN1CCC(CNc2ncccc2-c2ccccc2)C1 (stereo not shown) [Example 4, 3-(((3-Phenylpyridin-2-yl)amino)methyl)pyrrolidine-1-carbonitrile] | 4.00 to 5.00 | –
5 | N#CN1CCC(CNc2cc(-c3ccccc3)ccn2)C1 (stereo not shown) [Example 5, 3-(((4-Phenylpyridin-2-yl)amino)methyl)pyrrolidine-1-carbonitrile] | 6.00 to 7.00 | –
6 | N#CN1CCC(CNc2ccc(-c3ccccc3)cn2)C1 (stereo not shown) [Example 6, 3-(((5-Phenylpyridin-2-yl)amino)methyl)pyrrolidine-1-carbonitrile] | 5.00 to 6.00 | –
7 | N#CN1CCC(CNc2cccc(-c3ccccc3)n2)C1 (stereo not shown) [Example 7, 3-(((6-Phenylpyridin-2-yl)amino)methyl)pyrrolidine-1-carbonitrile] | 5.00 to 6.00 | –
8 | N#CN1CCC(CNc2nccc(-c3ccccc3)n2)C1 (stereo not shown) [Example 8, 3-(((4-Phenylpyrimidin-2-yl)amino)methyl)pyrrolidine-1-carbonitrile] | 5.00 to 6.00 | –
9 | N#CN1CC[C@H](CNc2ncc(-c3ccccc3)s2)C1 [Example 9, (R)-3-(((5-Phenylthiazol-2-yl)amino)methyl)pyrrolidine-1-carbonitrile] | > 7.00 | –
10 | N#CN1CC[C@@H](CNc2ncc(-c3ccccc3)s2)C1 [Example 10, (S)-3-(((5-Phenylthiazol-2-yl)amino)methyl)pyrrolidine-1-carbonitrile] | 6.00 to 7.00 | –
11 | N#CN1CCC(CNc2nc3ccc(-c4cn[nH]c4)cc3s2)C1 (stereo not shown) [Example 11, 3-(((6-(1H-Pyrazol-4-yl)benzo[d]thiazol-2-yl)amino)methyl)pyrrolidine-1-carbonitrile] | 6.00 to 7.00 | –
12 | N#CN1CC[C@H](CNc2ncc3ccc(-c4cn[nH]c4)cc3n2)C1 [Example 12, (R)-3-(((7-(1H-Pyrazol-4-yl)quinazolin-2-yl)amino)methyl)pyrrolidine-1-carbonitrile] | 5.00 to 6.00 | –
13 | Cc1nn(C)cc1-c1cccc(NCC2CCN(C#N)C2)c1 (stereo not shown) [Example 13, 3-(((3-(1,3-dimethyl-1H-pyrazol-4-yl)phenyl)amino)methyl)pyrrolidine-1-carbonitrile] | 5.00 to 6.00 | –
14 | Cc1nn(C)cc1-c1ccc(NCC2CCN(C#N)C2)cc1 (stereo not shown) [Example 14, 3-(((4-(1,3-Dimethyl-1H-pyrazol-4-yl)phenyl)amino)methyl) pyrrolidine-1-carbonitrile] | 5.00 to 6.00 | –
15 | Cc1nn(C)cc1-c1ccc(NCC2CCN(C#N)C2)c(F)c1 (stereo not shown) [Example 15, 3-(((4-(1,3-Dimethyl-1H-pyrazol-4-yl)-2-fluorophenyl)amino)methyl)pyrrolidine-1-carbonitrile] | 5.00 to 6.00 | –
16 | N#Cc1ccc2cnc(NCC3CCN(C#N)C3)cc2c1 (stereo not shown) [Example 16, 3-(((1-Cyano-pyrrolidin-3-yl)methyl)amino) isoquinoline-6-carbonitrile] | 5.00 to 6.00 | –
17 | CNC(=O)c1ccc2cnc(NCC3CCN(C#N)C3)cc2c1 (stereo not shown) [Example 17, 3-(((1-Cyano-pyrrolidin-3-yl)methyl)amino)-N-methylisoquinoline-6-carboxamide] | 5.00 to 6.00 | –
18 | N#CN1CCC(CNc2ccnc(N3Cc4ccccc4C3)c2)C1 (stereo not shown) [Example 18, 3-(((2-(isoindolin-2-yl)pyridin-4-yl)amino)methyl)pyrrolidine-1-carbonitrile] | 6.00 to 7.00 | –
19 | N#CN1CC[C@@H](CNc2nccc(-c3ccccc3)n2)C1 [Example 19, (S)-3-(((4-Phenylpyrimidin-2-yl)amino)methyl)pyrrolidine-1-carbonitrile] | 5.00 to 6.00 | –
20 | CN1C(=O)COc2ccc(C(=O)NCC3CCN(C#N)C3)cc21 (stereo not shown) [Example 23, N-((1-Cyanopyrrolidin-3-yl)methyl)-4-methyl-3-oxo-3,4-dihydro-2H-benzo[b][1,4]oxazine-6-carboxamide] | 6.00 to 7.00 | –
21 | N#CN1CCC(CNC(=O)c2ccc(-c3ccncc3)cc2)C1 (stereo not shown) [Example 24, N-((1-Cyanopyrrolidin-3-yl)methyl)-4-(pyridin-4-yl)benzamide] | 6.00 to 7.00 | –
22 | Cc1ccccc1-c1cc(C(=O)NCC2CCN(C#N)C2)[nH]n1 (stereo not shown) [Example 25, N-((1-Cyanopyrrolidin-3-yl)methyl)-3-(o-tolyl)-1H-pyrazole-5-carboxamide] | 6.00 to 7.00 | –

Row | Structure (SMILES) | pIC50 [1] | pIC50
23 | N#CN1CCC(CNC(=O)c2cc(N3CCCC3)ccn2)C1 (stereo not shown) [Example 27, N-((1-Cyanopyrrolidin-3-yl)methyl)-4-(pyrrolidin-1-yl)picolinamide] | 6.00 to 7.00 | –
24 | N#CN1CCC(CNC(=O)c2nn(Cc3ccc(Cl)cc3Cl)c3ccccc23)C1 (stereo not shown) [Example 28, N-((1-Cyanopyrrolidin-3-yl)methyl)-1-(2,4-dichlorobenzyl)-1H-indazole-3-carboxamide] | – | > 7.00
25 | N#CN1CCC(CNC(=O)c2nn(Cc3ccccc3)c3ccccc23)C1 (stereo not shown) [Example 29, 1-Benzyl-N-((1-cyanopyrrolidin-3-yl)methyl)-1H-indazole-3-carboxamide] | – | 5.00 to 6.00
26 | N#CN1CCC(CNC(=O)c2ccc(S(=O)(=O)Nc3ccccc3)cc2)C1 (stereo not shown) [Example 30, N-((1-Cyanopyrrolidin-3-yl)methyl)-4-(N-phenylsulfamoyl)benzamide] | 6.00 to 7.00 | –
27 | COc1ccc(/C=C/C(=O)NCC2CCN(C#N)C2)c(F)c1 (stereo not shown) [Example 32, (E)-N-((1-Cyanopyrrolidin-3-yl)methyl)-3-(2-fluoro-4-methoxyphenyl)acrylamide] | 6.00 to 7.00 | –
28 | N#CN1CCC(CNC(=O)c2cncc(-c3ccc(F)cc3)c2)C1 (stereo not shown) [Example 33, N-((1-Cyanopyrrolidin-3-yl)methyl)-5-(4-fluorophenyl)nicotinamide] | 6.00 to 7.00 | –
29 | N#CN1CC[C@@H](CNC(=O)c2ccc3c(c2)NC(=O)CO3)C1 [Example 34, (S)—N-((1-Cyanopyrrolidin-3-yl)methyl)-3-oxo-3,4-dihydro-2H-benzo[b][1,4]oxazine-6-carboxamide] | 5.00 to 6.00 | –
30 | N#CN1CC[C@H](CNC(=O)c2cn3cc(Cl)ccc3n2)C1 [Example 35, (R)-6-Chloro-N-((1-cyanopyrrolidin-3-yl)methyl)imidazo[1,2-a]pyridine-2-carboxamide] | 5.00 to 6.00 | –
31 | N#CN1CC[C@H](CNC(=O)c2cc3ccccn3n2)C1 [Example 36, (R)—N-((1-Cyanopyrrolidin-3-yl)methyl)pyrazolo[1,5-a]pyridine-2-carboxamide] | 5.00 to 6.00 | –
32 | CN(CC1CCN(C#N)C1)C(=O)Cc1ccc(-c2ccccc2)cc1 (stereo not shown) [Example 37, 2-([1,1′-biphenyl]-4-yl)-N-((1-cyanopyrrolidin-3-yl)methyl)-N-methylacetamide] | 6.00 to 7.00 | –
33 | Cn1cc(-c2ccc3nc(C(=O)NCC4CCN(C#N)C4)cn3c2)cn1 (stereo not shown) [Example 39, N-((1-Cyanopyrrolidin-3-yl)methyl)-6-(1-methyl-1H-pyrazol-4-yl)imidazo[1,2-a]pyridine-2-carboxamide] | 5.00 to 6.00 | –
34 | Cc1cc(C(=O)NCC2CCN(C#N)C2)nn1Cc1ccccc1 (stereo not shown) [Example 40, 1-Benzyl-N-((1-cyanopyrrolidin-3-yl)methyl)-5-methyl-1H-pyrazole-3-carboxamide] | 5.00 to 6.00 | –
35 | N#CN1CCC(CNC(=O)Nc2cccc(Cl)c2)C1 (stereo not shown) [Example 41, 1-(3-Chlorophenyl)-3-((1-cyanopyrrolidin-3-yl)methyl)urea] | 6.00 to 7.00 | –
36 | Cc1ccc(F)c(NC(=O)NCC2CCN(C#N)C2)c1 (stereo not shown) [Example 42, 1-((1-Cyanopyrrolidin-3-yl)methyl)-3-(2-fluoro-5-methylphenyl)urea] | 6.00 to 7.00 | –
37 | N#CN1CCC(CNC(=O)Nc2cccc(Cc3ccccc3)c2)C1 (stereo not shown) [Example 43, 1-(3-Benzylphenyl)-3-((1-cyanopyrrolidin-3-yl)methyl)urea] | 6.00 to 7.00 | –
38 | N#CN1CCC(CNC(=O)Nc2ccc(Cl)cc2Cl)C1 (stereo not shown) [Example 44, 1-((1-Cyanopyrrolidin-3-yl)methyl)-3-(2,4-dichlorophenyl)urea] | 6.00 to 7.00 | –
39 | N#CN1CCC(CNC(=O)Nc2ccc(C(F)(F)F)cc2)C1 (stereo not shown) [Example 45, 1-((1-Cyanopyrrolidin-3-yl)methyl)-3-(4-(trifluoromethyl)phenyl)urea] | 6.00 to 7.00 | –
40 | Cc1nc(-c2cccc(S(=O)(=O)N(C)CC3CCN(C#N)C3)c2)cs1 (stereo not shown) [Example 46, N-((1-Cyanopyrrolidin-3-yl)methyl)-N-methyl-3-(2-methylthiazol-4-yl)-benzenesulfonamide] | 6.00 to 7.00 | –
41 | CN(CC1CCN(C#N)C1)S(=O)(=O)c1ccc(Oc2ccc(C(F)(F)F)cn2)cc1 (stereo not shown) [Example 47, N-((1-Cyanopyrrolidin-3-yl)methyl)-N-methyl-4-((5-(trifluoromethyl)pyridin-2-yl)oxy)benzenesulfonamide] | 6.00 to 7.00 | –
42 | Cc1oncc1-c1ccc2nc(NC(C)C3CCN(C#N)C3)sc2c1 (stereo not shown) [Example 48, 3-(1-((6-(5-Methylisoxazol-4-yl)benzo[d]thiazol-2-yl)amino)ethyl)pyrrolidine-1-carbonitrile] | 6.00 to 7.00 | –
43 | CC(Nc1nc2ccc(-c3cn[nH]c3)cc2s1)C1CCN(C#N)C1 (stereo not shown) [Example 49, 3-(1-((6-(1H-Pyrazol-4-yl)benzo[d]thiazol-2-yl)amino)ethyl)pyrrolidine-1-carbonitrile] | 6.00 to 7.00 | –

Source: patent US11130748B2, “Compounds” (MISSION THERAPEUTICS LIMITED, priority 2015, dated 2021)
